Biological target: T1, BRD4 proteins (Homo sapiens, UniProt O60885)
T1 construct: endogenous in cells; host or cells: MM.1S
Assay: Degradation of BRD4 protein in MM.1S cell lines (Western blot densitometry)
Type: cell-based
Details: MM.1S cells, 10 μM, 24 hours
Protocol: To confirm that the compounds (BRD4 degraders) of Preparation Examples I′ to IV′ reduce the amount of BRD4 proteins, experiments were performed using MM.1S cell lines, which are B cells derived from the blood of multiple myeloma patients.
Specifically, the MM.1S cells were cultured in RPMI-1640 medium supplemented with 10% fetal bovine serum and Penicillin/Streptomycin (100 U/mL), transferred to a 6-well plate, and after 24 hours, the BRD4 degraders were diluted in the culture medium and the cells were treated with 10 μM each. After treatment, the cells were incubated in a C02 incubator for 24 hours. Through protein immunoblotting (Western Blot), the degrading capacity of each compound against BRD4 proteins in cells was confirmed. After cell culture was completed according to the experimental conditions, the cells were collected and centrifuged at 1,800 rpm for 3 minutes. The cells in the precipitate were lysed with RIPA (25 mM Tris-HCl pH 7.6, 150 mM NaCl, 1% NP-40, 1% sodium deoxycholate, 0.1% SDS, 1× Protease Inhibitor Cocktail), 5× sample buffer was added, and then heated at 100° C. for 15 minutes. The prepared sample was electrophoresed with sodium dodecyl sulfate poly acrylamide gel electrophoresis (SDS-PAGE), and then the proteins in the gel were transferred to a PVDF membrane using Trans-Blot Turbo. The membrane was treated with a 5% bovine serum albumin (BSA) solution and blocked at room temperature for 2 hours, and then BRD4 and R-actin antibodies were diluted in the 5% BSA solution to react with the membrane at 4° C. overnight. After washed with PBST (0.5% Tween20) 5 times, horse radish peroxidase (HRP)-conjugated secondary antibodies were diluted in PBST to react at room temperature for 2 hours, and then washed again with a PBST solution 5 times. After enzyme-substrate reaction was carried out using a HRP substrate, a signal was measured with chemi-doc equipment, and the densitometry of a band corresponding to the BRD4 protein detected in the Preparation Example Compounds was quantitatively analyzed. The case when the degrading capacity of each BRD4 degrader was reduced by less than 40% is indicated as +, the case when the degrading capacity was reduced by 40% to 70% (exclusive of 70) is indicated as ++, the case when the degrading capacity was reduced by 70% or more is indicated as +++ in Tables 16 to 19 below. As shown in the following Tables, it was confirmed that the compounds of Preparation Examples I′ to IV′ according to the present invention have excellent degrading capacity.

Structure (SMILES)	BRD4 degrading capacity (%)
Cc1sc2c(c1C)C(c1ccc(Cl)cc1)=N[C@@H](CC(=O)Nc1ccc(C#CCN)cc1)c1nnc(C)n1-2.Cl [1-1′, (S)—N-(4-(3-aminoprop-1-yn-1-yl)phenyl)-2-(4-(4-chlorophenyl)-2,3,9-trimethyl-6H-thieno[3,2-f][1,2,4]triazolo[4,3-a][1,4]diazepin-6-yl)acetamide hydrochloride]	++ (the degrading capacity was reduced by 40% to 70% (exclusive of 70))
Cc1sc2c(c1C)C(c1ccc(Cl)cc1)=N[C@@H](CC(=O)Nc1cccc(C#CCN)c1)c1nnc(C)n1-2.Cl [1-3′, (S)—N-(3-(3-aminoprop-1-yn-1-yl)phenyl)-2-(4-(4-chlorophenyl)-2,3,9-trimethyl-6H-thieno[3,2-f][1,2,4]triazolo[4,3-a][1,4]diazepin-6-yl)acetamide hydrochloride]	++ (the degrading capacity was reduced by 40% to 70% (exclusive of 70))
COC(=O)c1cc(NC(=O)C[C@@H]2N=C(c3ccc(Cl)cc3)c3c(sc(C)c3C)-n3c(C)nnc32)ccc1C#CCN.Cl [3-1′, methyl (S)-2-(3-aminoprop-1-yn-1-yl)-5-(2-(4-(4-chlorophenyl)-2,3,9-trimethyl-6H-thieno[3,2-f][1,2,4]triazolo[4,3-a][1,4]diazepin-6-yl)acetamido)benzoate hydrochloride]	+++ (the degrading capacity was reduced by 70% or more)
Cc1sc2c(c1C)C(c1ccc(Cl)cc1)=N[C@@H](CC(=O)Nc1ccc(C#CCN)c(C(=O)O)c1)c1nnc(C)n1-2.Cl [3-2′, (S)-2-(3-aminoprop-1-yn-1-yl)-5-(2-(4-(4-chlorophenyl)-2,3,9-trimethyl-6H-thieno[3,2-f][1,2,4]triazolo[4,3-a][1,4]diazepin-6-yl)acetamido)benzoic acid hydrochloride]	++ (the degrading capacity was reduced by 40% to 70% (exclusive of 70))
Cc1sc2c(c1C)C(c1ccc(Cl)cc1)=N[C@@H](CC(=O)Nc1ccc(C#CCN)c(CO)c1)c1nnc(C)n1-2.Cl [3-3′, (S)—N-(4-(3-aminoprop-1-yn-1-yl)-3-(hydroxymethyl)phenyl)-2-(4-(4-chlorophenyl)-2,3,9-trimethyl-6H-thieno[3,2-f][1,2,4]triazolo[4,3-a][1,4]diazepin-6-yl)acetamide hydrochloride]	+++ (the degrading capacity was reduced by 70% or more)
Cc1sc2c(c1C)C(c1ccc(Cl)cc1)=N[C@@H](CC(=O)Nc1ccc(C#CCN)c(COP(=O)(O)O)c1)c1nnc(C)n1-2 [3-8′, (S)-2-(3-aminoprop-1-yn-1-yl)-5-(2-(4-(4-chlorophenyl)-2,3,9-trimethyl-6H-thieno[3,2-f][1,2,4]triazolo[4,3-a][1,4]diazepin-6-yl)acetamido)benzyl dihydrogen phosphate trifluoroacetic acid]	+ (the degrading capacity of each BRD4 degrader was reduced by less than 40%)
COC(=O)c1ccc(NC(=O)C[C@@H]2N=C(c3ccc(Cl)cc3)c3c(sc(C)c3C)-n3c(C)nnc32)cc1C#CCN.Cl [3-25′, methyl (S)-2-(3-aminoprop-1-yn-1-yl)-4-(2-(4-(4-chlorophenyl)-2,3,9-trimethyl-6H-thieno[3,2-f][1,2,4]triazolo[4,3-a][1,4]diazepin-6-yl)acetamido)benzoate hydrochloride]	+++ (the degrading capacity was reduced by 70% or more)
Cc1sc2c(c1C)C(c1ccc(Cl)cc1)=N[C@@H](CC(=O)Nc1ccc(C(=O)O)c(C#CCN)c1)c1nnc(C)n1-2.Cl [3-26′, (S)-2-(3-aminoprop-1-yn-1-yl)-4-(2-(4-(4-chlorophenyl)-2,3,9-trimethyl-6H-thieno[3,2-f][1,2,4]triazolo[4,3-a][1,4]diazepin-6-yl)acetamido)benzoic acid hydrochloride]	++ (the degrading capacity was reduced by 40% to 70% (exclusive of 70))
Cc1sc2c(c1C)C(c1ccc(Cl)cc1)=N[C@@H](CC(=O)Nc1ccc(CO)c(C#CCN)c1)c1nnc(C)n1-2.Cl [3-27′, (S)—N-(3-(3-aminoprop-1-yn-1-yl)-4-(hydroxymethyl)phenyl)-2-(4-(4-chlorophenyl)-2,3,9-trimethyl-6H-thieno[3,2-f][1,2,4]triazolo[4,3-a][1,4]diazepin-6-yl)acetamide hydrochloride]	++ (the degrading capacity was reduced by 40% to 70% (exclusive of 70))
Cc1sc2c(c1C)C(c1ccc(Cl)cc1)=N[C@@H](CC(=O)Nc1ccc(C#CC(N)CO)cc1)c1nnc(C)n1-2.Cl (stereo partly drawn) [3-49′, N-(4-(3-amino-4-hydroxybut-1-yn-1-yl)phenyl)-2-((S)-4-(4-chlorophenyl)-2,3,9-trimethyl-6H-thieno[3,2-f][1,2,4]triazolo[4,3-a][1,4]diazepin-6-yl)acetamide hydrochloride]	++ (the degrading capacity was reduced by 40% to 70% (exclusive of 70))
Cc1sc2c(c1C)C(c1ccc(Cl)cc1)=N[C@@H](CC(=O)Nc1cccc(C#CC(N)CO)c1)c1nnc(C)n1-2.Cl (stereo partly drawn) [3-51′, N-(3-(3-amino-4-hydroxybut-1-yn-1-yl)phenyl)-2-((S)-4-(4-chlorophenyl)-2,3,9-trimethyl-6H-thieno[3,2-f][1,2,4]triazolo[4,3-a][1,4]diazepin-6-yl)acetamide hydrochloride]	+++ (the degrading capacity was reduced by 70% or more)
Cc1sc2c(c1C)C(c1ccc(Cl)cc1)=N[C@@H](CC(=O)Nc1ccc(C#CC(N)COP(=O)(O)O)cc1)c1nnc(C)n1-2 (stereo partly drawn) [3-57′, 2-amino-4-(4-(2-((S)-4-(4-chlorophenyl)-2,3,9-trimethyl-6H-thieno[3,2-f][1,2,4]triazolo[4,3-a][1,4]diazepin-6-yl)acetamido)phenyl)but-3-yn-1-yl dihydrogen phosphate trifluoroacetic acid]	++ (the degrading capacity was reduced by 40% to 70% (exclusive of 70))
Cc1sc2c(c1C)C(c1ccc(Cl)cc1)=N[C@@H](CC(=O)NCC#Cc1ccc(C#CCN)o1)c1nnc(C)n1-2.Cl [4-1′, (S)—N-(3-(5-(3-aminoprop-1-yn-1-yl)furan-2-yl)prop-2-yn-1-yl)-2-(4-(4-chlorophenyl)-2,3,9-trimethyl-6H-thieno[3,2-f][1,2,4]triazolo[4,3-a][1,4]diazepin-6-yl)acetamide hydrochloride]	++ (the degrading capacity was reduced by 40% to 70% (exclusive of 70))
COC(=O)c1cc(N2CCN(C(=O)C[C@@H]3N=C(c4ccc(Cl)cc4)c4c(sc(C)c4C)-n4c(C)nnc43)CC2)ccc1C#CCN.Cl [4-2′, methyl (S)-2-(3-aminoprop-1-yn-1-yl)-5-(4-(2-(4-(4-chlorophenyl)-2,3,9-trimethyl-6H-thieno[3,2-f][1,2,4]triazolo[4,3-a][1,4]diazepin-6-yl)acetyl)piperazin-1-yl)benzoate hydrochloride]	+++ (the degrading capacity was reduced by 70% or more)
Cc1sc2c(c1C)C(c1ccc(Cl)cc1)=N[C@@H](CC(=O)NCC#Cc1ccc(C#CCN)s1)c1nnc(C)n1-2.Cl [4-10′, (S)—N-(3-(5-(3-aminoprop-1-yn-1-yl)thiophen-2-yl)prop-2-yn-1-yl)-2-(4-(4-chlorophenyl)-2,3,9-trimethyl-6H-thieno[3,2-f][1,2,4]triazolo[4,3-a][1,4]diazepin-6-yl)acetamide hydrochloride]	+++ (the degrading capacity was reduced by 70% or more)
Cc1sc2c(c1C)C(c1ccc(Cl)cc1)=N[C@@H](CC(=O)NCCC(=O)Nc1ccc(C#CCN)cc1)c1nnc(C)n1-2.Cl [4-124′, (S)—N-(4-(3-aminoprop-1-yn-1-yl)phenyl)-3-(2-(4-(4-chlorophenyl)-2,3,9-trimethyl-6H-thieno[3,2-f][1,2,4]triazolo[4,3-a][1,4]diazepin-6-yl)acetamido)propanamide hydrochloride]	+++ (the degrading capacity was reduced by 70% or more)
Cc1sc2c(c1C)C(c1ccc(Cl)cc1)=N[C@@H](CC(=O)NCCC(=O)Nc1ccc(C#CCN)c(CO)c1)c1nnc(C)n1-2.Cl [4-125′, (S)—N-(4-(3-aminoprop-1-yn-1-yl)-3-(hydroxymethyl)phenyl)-3-(2-(4-(4-chlorophenyl)-2,3,9-trimethyl-6H-thieno[3,2-f][1,2,4]triazolo[4,3-a][1,4]diazepin-6-yl)acetamido)propanamide hydrochloride]	+++ (the degrading capacity was reduced by 70% or more)

Source: patent publication US20240425517A1, “NOVEL COMPOUND FOR DEGRADATION OF TARGET PROTEIN OR POLYPEPTIDE BY POLYUBIQUITINATION” (PRAZER THERAPEUTICS INC., priority 2021, published 2024)
